Data taken from US20240409531A1, “BENZOXAZINONE DERIVATIVES AS SELECTIVE CYTOTOXIC AGENTS” (Merck Sharp & Dohme LLC, priority 2021, published 2024).

Each molecule was assayed on PBMCs infected with VSV-G pseudotyped HIV virus (VSV-G/pNLGI-P2A-ΔEnv) (assay: cells). Conditions: Homo sapiens, PBMC, read-out: TACK EC50 (nM).
Assay type: cell-based

SMILES	EC50
CC(F)(F)[C@@]1(C#CC2CC2)OC(=O)Nc2cc(Cc3ccnc(N)c3C#N)ccc21 [Example 35, (S)-2-amino-4-((4-(cyclopropylethynyl)-4-(1,1-difluoroethyl)-2-oxo-1,4-dihydro-2H-benzo[d][1,3]oxazin-7-yl)methyl)nicotinonitrile]	20 nM
CC(F)(F)[C@@]1(C#CC2CC2)OC(=O)Nc2cc(Cc3ccnc(N)c3C#N)c(F)cc21 [Example 36, (S)-2-amino-4-((4-(cyclopropylethynyl)-4-(1,1-difluoroethyl)-6-fluoro-2-oxo-1,4-dihydro-2H-benzo[d][1,3]oxazin-7-yl)methyl)nicotinonitrile]	18 nM
CC(F)(F)[C@@]1(C#CC2CC2)OC(=O)Nc2cc(Cc3ccnc(N)n3)ccc21 [Example 37, (S)-7-((2-aminopyrimidin-4-yl)methyl)-4-(cyclopropylethynyl)-4-(1.1-difluoroethyl)-1.4-dihydro-2H-benzo[d][1.3]oxazin-2-one]	43 nM
Nc1nccc(Cc2cc3c(cc2Cl)[C@@](C#CC2CC2)(C(F)(F)F)OC(=O)N3)n1 [Example 38, (S)-7-((2-aminopyrimidin-4-yl)methyl)-6-chloro-4-(cyclopropylethynyl)-4-(trifluoromethyl)-1,4-dihydro-2H-benzo[d][1,3]oxazin-2-one]	149 nM
CC(F)(F)[C@@]1(C#CC2CC2)OC(=O)Nc2cc(Cc3ccnc(N)n3)c(F)cc21 [Example 39, (S)-7-((2-aminopyrimidin-4-yl)methyl)-4-(cyclopropylethynyl)-4-(1,1-difluoroethyl)-6-fluoro-1,4-dihydro-2H-benzo[d][1,3]oxazin-2-one]	16 nM
CC(F)(F)[C@@]1(C#CC2CC2)OC(=O)Nc2cc(Cc3ccnc(N)n3)c(Cl)cc21 [Example 40, (S)-7-((2-aminopyrimidin-4-yl)methyl)-6-chloro-4-(cyclopropylethynyl)-4-(1,1-difluoroethyl)-1,4-dihydro-2H-benzo[d][1,3]oxazin-2-one]	65 nM
